Assays:
[1] = Change in API purity during preparation of freeze-drying formulation, UPLC; type: physicochemical; details: API powder before dissolving in the solvent composition
Protocol: A final API freeze-drying formulation was prepared as described in Table 16 below.
In order to confirm the change in purity of the API during the preparation of the final API freeze-drying formulation, the purity of the API powder before dissolving in the solvent composition, and the API purity during the preparation of the API mixture solution and after freeze-drying were measured using UPLC.

[2] = Solubility of compound of Formula 1 in water and solvents of various compositions; type: physicochemical
Description: Further, it was confirmed that the compound of Formula 1 has the property of reducing the pH of a solution while being dissolved in a solvent.

- Purity (%) [1]: 98.6%
- solubility in acidic solvents ([2]; acidic solvents of pH 4 or less containing phosphate buffer, solubilizing agent and pH adjusting agent): hardly soluble
- solubility in water ([2]; water): poorly soluble in water
- solubility in weak acidic and basic solvents ([2]; weak acidic solvents of pH 6 or more and basic solvents of pH 7.5 or more): dissolved well
SMILES: CC(C)[C@@]1(C(=O)N[C@H]2CC(=O)O[C@]2(O)CF)CC(c2nccc3ccccc23)=NO1 [Compound of Formula 1, (R)-N-((2S,3S)-2-(fluoromethyl)-2-hydroxy-5-oxotetrahydrofuran-3-yl)-5-isopropyl-3-(isoquinolin-1-yl)-4,5-dihydroisoxazol-5-carboxamide]

Reference: US20250152576A1, “INJECTABLE FORMULATION COMPRISING ISOXAZOLINE DERIVATIVE AND METHOD FOR PREPARING SAME” (LG CHEM, LTD., priority 2022, published 2025)
